ChEMBL document CHEMBL4507285, “Data for DCP probe MRL-SYKi” (2021)
Calls of active or inactive are those of the source.

Experiments:
[1] = tested on: Receptor-type tyrosine-protein kinase FLT3 (Homo sapiens), P36888 [K663Q]; details: Compound concentration 100.0 nM
[2] = molecular target: Rhodopsin kinase GRK7 (Homo sapiens) (UniProt Q8WTQ7); details: Compound concentration 100.0 nM
[3] = molecular target: 5-hydroxytryptamine receptor 1D (Homo sapiens) (UniProt P28221); details: Compound concentration 10.0 uM
[4] = molecular target: Discoidin domain-containing receptor 2 (Homo sapiens) (UniProt Q16832); details: Compound concentration 100.0 nM
Discoidin domain-containing receptor 2 (Homo sapiens), sequence (Q16832 whole entry, the tested form may be a part): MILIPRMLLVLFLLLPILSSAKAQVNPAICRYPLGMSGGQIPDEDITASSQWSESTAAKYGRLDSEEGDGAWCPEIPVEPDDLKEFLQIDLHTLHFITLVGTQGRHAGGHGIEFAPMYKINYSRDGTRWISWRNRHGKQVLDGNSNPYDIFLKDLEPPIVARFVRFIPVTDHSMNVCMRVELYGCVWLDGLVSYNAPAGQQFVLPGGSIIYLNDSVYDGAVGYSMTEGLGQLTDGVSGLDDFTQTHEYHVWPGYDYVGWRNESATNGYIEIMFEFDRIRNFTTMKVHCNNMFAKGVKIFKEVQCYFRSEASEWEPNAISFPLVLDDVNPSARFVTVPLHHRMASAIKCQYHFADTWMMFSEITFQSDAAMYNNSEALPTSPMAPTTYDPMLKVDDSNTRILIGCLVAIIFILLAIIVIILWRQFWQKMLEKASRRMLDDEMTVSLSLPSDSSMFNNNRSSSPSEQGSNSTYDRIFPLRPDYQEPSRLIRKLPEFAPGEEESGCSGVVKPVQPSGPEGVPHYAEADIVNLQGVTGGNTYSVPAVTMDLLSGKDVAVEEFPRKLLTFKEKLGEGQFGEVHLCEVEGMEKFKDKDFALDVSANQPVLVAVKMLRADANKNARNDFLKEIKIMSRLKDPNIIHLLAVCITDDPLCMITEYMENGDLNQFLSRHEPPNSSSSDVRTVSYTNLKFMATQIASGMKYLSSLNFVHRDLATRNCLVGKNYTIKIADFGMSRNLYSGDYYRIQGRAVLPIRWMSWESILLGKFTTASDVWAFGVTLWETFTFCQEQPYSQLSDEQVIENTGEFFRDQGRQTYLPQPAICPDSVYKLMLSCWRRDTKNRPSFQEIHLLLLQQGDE

[5] = molecular target: Serine/threonine-protein kinase D2 (Homo sapiens) (UniProt Q9BZL6); details: Compound concentration 100.0 nM
[6] = molecular target: Ribosomal protein S6 kinase alpha-6 (Homo sapiens) (UniProt Q9UK32); details: Compound concentration 100.0 nM
Ribosomal protein S6 kinase alpha-6 (Homo sapiens), sequence (Q9UK32 whole entry): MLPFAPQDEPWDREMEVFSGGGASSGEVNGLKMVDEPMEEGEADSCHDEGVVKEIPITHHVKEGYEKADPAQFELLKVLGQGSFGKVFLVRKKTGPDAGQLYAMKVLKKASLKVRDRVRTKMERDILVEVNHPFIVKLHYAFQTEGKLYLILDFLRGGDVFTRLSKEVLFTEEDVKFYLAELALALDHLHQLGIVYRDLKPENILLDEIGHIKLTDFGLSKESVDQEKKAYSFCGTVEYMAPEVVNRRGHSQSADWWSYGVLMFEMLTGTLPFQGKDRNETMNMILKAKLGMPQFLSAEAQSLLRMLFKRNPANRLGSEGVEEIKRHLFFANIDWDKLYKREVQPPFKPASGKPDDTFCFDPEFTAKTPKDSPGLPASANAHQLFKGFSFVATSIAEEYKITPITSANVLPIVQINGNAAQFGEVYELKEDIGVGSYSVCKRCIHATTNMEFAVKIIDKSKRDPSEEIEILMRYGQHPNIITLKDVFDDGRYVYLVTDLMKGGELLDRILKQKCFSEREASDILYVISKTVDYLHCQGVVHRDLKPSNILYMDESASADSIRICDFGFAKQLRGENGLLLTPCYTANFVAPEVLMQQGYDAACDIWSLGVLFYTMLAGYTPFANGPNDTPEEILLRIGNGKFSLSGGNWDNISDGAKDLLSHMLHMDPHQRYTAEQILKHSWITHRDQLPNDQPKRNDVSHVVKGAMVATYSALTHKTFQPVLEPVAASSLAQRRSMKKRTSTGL

[7] = molecular target: Mitogen-activated protein kinase 1 (Homo sapiens) (UniProt P28482); details: Compound concentration 100.0 nM
[8] = molecular target: Mu-type opioid receptor (Homo sapiens) (UniProt P35372); details: Compound concentration 10.0 uM
[9] = molecular target: 5-hydroxytryptamine receptor 3A (Homo sapiens) (UniProt P46098); details: Compound concentration 10.0 uM
[10] = tested on: Phosphatidylinositol 4,5-bisphosphate 3-kinase catalytic subunit alpha isoform (Homo sapiens), P42336 [M1043I]; details: Compound concentration 100.0 nM
[11] = molecular target: Tyrosine-protein kinase TXK (Homo sapiens) (UniProt P42681); details: Compound concentration 100.0 nM
[12] = tested on: Fibroblast growth factor receptor 3 (Homo sapiens), P22607 [G697C]; details: Compound concentration 100.0 nM
[13] = molecular target: Tyrosine-protein kinase SYK (Homo sapiens, UniProt P43405); experiment: Human SKY enzyme assay
[14] = tested on: Tyrosine-protein kinase ABL1 (Homo sapiens), P00519 [T315I]; details: Compound concentration 100.0 nM
[15] = molecular target: RAC-alpha serine/threonine-protein kinase (Homo sapiens) (UniProt P31749); details: Compound concentration 100.0 nM
[16] = tested on: Phosphatidylinositol 4,5-bisphosphate 3-kinase catalytic subunit alpha isoform (Homo sapiens), P42336 [H1047Y]; details: Compound concentration 100.0 nM
[17] = molecular target: Serine/threonine-protein kinase MRCK gamma (Homo sapiens) (UniProt Q6DT37); details: Compound concentration 100.0 nM
Serine/threonine-protein kinase MRCK gamma (Homo sapiens), sequence (Q6DT37 whole entry): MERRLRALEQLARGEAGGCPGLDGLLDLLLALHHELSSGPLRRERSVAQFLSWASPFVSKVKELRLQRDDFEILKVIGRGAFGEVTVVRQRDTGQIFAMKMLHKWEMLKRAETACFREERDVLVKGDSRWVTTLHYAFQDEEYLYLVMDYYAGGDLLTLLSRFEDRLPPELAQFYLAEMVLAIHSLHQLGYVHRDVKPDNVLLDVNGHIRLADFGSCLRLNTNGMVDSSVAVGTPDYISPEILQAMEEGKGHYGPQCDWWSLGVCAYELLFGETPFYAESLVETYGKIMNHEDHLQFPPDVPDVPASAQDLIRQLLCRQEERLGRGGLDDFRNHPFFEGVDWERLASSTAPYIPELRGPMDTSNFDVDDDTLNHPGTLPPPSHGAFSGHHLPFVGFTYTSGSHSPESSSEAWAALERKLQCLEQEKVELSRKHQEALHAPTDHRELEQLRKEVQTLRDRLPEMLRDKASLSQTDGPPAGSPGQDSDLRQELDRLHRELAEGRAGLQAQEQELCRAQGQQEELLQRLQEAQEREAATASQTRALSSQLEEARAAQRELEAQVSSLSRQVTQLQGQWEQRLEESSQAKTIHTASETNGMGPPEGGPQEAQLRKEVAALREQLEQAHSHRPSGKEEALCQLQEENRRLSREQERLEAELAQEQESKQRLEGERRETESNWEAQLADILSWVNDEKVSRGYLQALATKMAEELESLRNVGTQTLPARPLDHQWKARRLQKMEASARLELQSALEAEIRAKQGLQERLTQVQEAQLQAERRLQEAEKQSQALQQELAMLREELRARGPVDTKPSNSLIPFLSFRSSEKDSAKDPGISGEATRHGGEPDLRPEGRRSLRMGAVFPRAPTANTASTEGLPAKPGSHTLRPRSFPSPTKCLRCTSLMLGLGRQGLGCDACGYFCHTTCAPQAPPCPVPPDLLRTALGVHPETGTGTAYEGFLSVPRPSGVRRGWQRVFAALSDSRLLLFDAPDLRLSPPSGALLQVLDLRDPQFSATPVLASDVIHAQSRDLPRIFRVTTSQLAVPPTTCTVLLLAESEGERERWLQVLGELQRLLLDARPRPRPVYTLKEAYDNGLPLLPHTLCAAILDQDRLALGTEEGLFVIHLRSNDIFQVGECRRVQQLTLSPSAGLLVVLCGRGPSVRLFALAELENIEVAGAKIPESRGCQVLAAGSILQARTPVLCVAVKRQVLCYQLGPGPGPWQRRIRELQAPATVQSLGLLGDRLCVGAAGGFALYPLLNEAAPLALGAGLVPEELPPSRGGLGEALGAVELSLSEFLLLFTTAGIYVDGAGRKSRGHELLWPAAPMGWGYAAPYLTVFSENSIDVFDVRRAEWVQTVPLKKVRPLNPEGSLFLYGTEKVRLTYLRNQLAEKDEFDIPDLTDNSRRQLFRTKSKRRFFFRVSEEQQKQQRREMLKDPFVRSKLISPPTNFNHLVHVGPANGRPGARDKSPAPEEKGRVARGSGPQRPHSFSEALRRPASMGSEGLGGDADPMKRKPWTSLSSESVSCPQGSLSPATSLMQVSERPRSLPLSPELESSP

[18] = molecular target: Vascular endothelial growth factor receptor 1 (Homo sapiens) (UniProt P17948); details: Compound concentration 100.0 nM
[19] = molecular target: Homeodomain-interacting protein kinase 3 (Homo sapiens) (UniProt Q9H422); details: Compound concentration 100.0 nM
[20] = molecular target: MAP kinase-activated protein kinase 5 (Homo sapiens) (UniProt Q8IW41); details: Compound concentration 100.0 nM
MAP kinase-activated protein kinase 5 (Homo sapiens), sequence (Q8IW41 whole entry): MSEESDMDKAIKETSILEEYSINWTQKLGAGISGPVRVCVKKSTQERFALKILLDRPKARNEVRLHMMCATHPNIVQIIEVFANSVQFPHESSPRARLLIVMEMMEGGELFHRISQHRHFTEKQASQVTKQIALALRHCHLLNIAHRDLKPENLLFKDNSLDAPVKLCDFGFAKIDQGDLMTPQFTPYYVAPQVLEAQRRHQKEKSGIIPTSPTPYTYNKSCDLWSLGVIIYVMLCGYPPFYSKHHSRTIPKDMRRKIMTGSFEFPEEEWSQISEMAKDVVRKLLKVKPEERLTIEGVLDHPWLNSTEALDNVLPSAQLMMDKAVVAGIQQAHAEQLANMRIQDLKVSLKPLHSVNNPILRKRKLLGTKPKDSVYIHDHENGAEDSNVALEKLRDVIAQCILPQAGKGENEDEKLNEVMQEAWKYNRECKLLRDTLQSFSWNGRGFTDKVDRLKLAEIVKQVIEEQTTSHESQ

[21] = molecular target: Dual specificity mitogen-activated protein kinase kinase 7 (Homo sapiens) (UniProt O14733); details: Compound concentration 100.0 nM
[22] = molecular target: Serine/threonine-protein kinase PAK 2 (Homo sapiens) (UniProt Q13177); details: Compound concentration 100.0 nM
Serine/threonine-protein kinase PAK 2 (Homo sapiens), sequence (Q13177 whole entry): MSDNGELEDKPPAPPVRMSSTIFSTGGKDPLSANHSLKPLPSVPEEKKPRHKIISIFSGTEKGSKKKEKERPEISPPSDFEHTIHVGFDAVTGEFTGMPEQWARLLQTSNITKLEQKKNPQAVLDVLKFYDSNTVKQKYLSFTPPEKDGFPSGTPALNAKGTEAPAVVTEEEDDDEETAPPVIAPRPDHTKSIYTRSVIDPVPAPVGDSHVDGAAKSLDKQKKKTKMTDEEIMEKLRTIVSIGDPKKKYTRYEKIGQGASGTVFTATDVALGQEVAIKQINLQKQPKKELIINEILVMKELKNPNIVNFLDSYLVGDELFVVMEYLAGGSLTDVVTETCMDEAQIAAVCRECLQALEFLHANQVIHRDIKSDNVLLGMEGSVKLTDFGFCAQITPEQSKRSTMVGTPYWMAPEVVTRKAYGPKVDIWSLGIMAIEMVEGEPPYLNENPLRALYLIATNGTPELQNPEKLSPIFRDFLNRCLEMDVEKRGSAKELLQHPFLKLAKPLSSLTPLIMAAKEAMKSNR

[23] = molecular target: Serine/threonine-protein kinase DCLK1 (Homo sapiens) (UniProt O15075); details: Compound concentration 100.0 nM
[24] = molecular target: Cyclin-dependent kinase 5 (Homo sapiens) (UniProt Q00535); details: Compound concentration 100.0 nM
[25] = molecular target: Fibroblast growth factor receptor 1 (Homo sapiens) (UniProt P11362); details: Compound concentration 100.0 nM
[26] = molecular target: Serine/threonine-protein kinase Nek2 (Homo sapiens) (UniProt P51955); details: Compound concentration 100.0 nM
[27] = molecular target: Dual serine/threonine and tyrosine protein kinase (Homo sapiens) (UniProt Q6XUX3); details: Compound concentration 100.0 nM
[28] = molecular target: Eukaryotic translation initiation factor 2-alpha kinase 1 (Homo sapiens) (UniProt Q9BQI3); details: Compound concentration 100.0 nM
[29] = molecular target: Maternal embryonic leucine zipper kinase (Homo sapiens) (UniProt Q14680); details: Compound concentration 100.0 nM
[30] = molecular target: Mitogen-activated protein kinase kinase kinase kinase 3 (Homo sapiens) (UniProt Q8IVH8); details: Compound concentration 100.0 nM
[31] = molecular target: Serine/threonine-protein kinase Sgk3 (Homo sapiens) (UniProt Q96BR1); details: Compound concentration 100.0 nM
[32] = molecular target: Serine/threonine-protein kinase WNK1 (Homo sapiens) (UniProt Q9H4A3); details: Compound concentration 100.0 nM
[33] = molecular target: Mitogen-activated protein kinase kinase kinase 11 (Homo sapiens) (UniProt Q16584); details: Compound concentration 100.0 nM
[34] = molecular target: Fibroblast growth factor receptor 2 (Homo sapiens) (UniProt P21802); details: Compound concentration 100.0 nM
[35] = molecular target: 5-hydroxytryptamine receptor 1A (Homo sapiens) (UniProt P08908); details: Compound concentration 10.0 uM
[36] = molecular target: Cyclin-dependent kinase 4 (Homo sapiens) (UniProt P11802); details: Compound concentration 100.0 nM
Cyclin-dependent kinase 4 (Homo sapiens), sequence (P11802 whole entry): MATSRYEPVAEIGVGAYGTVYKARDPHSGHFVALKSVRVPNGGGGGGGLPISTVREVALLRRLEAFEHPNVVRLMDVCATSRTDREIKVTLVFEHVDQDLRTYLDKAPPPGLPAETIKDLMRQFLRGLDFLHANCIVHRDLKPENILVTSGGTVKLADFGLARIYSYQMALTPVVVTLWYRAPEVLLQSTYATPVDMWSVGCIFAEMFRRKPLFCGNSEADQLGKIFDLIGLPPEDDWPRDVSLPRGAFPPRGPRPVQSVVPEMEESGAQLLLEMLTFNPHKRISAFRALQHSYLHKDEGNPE

[37] = molecular target: ALK tyrosine kinase receptor (Homo sapiens) (UniProt Q9UM73); details: Compound concentration 100.0 nM
[38] = molecular target: Serine/threonine-protein kinase LATS1 (Homo sapiens) (UniProt O95835); details: Compound concentration 100.0 nM
[39] = molecular target: Cyclin-G-associated kinase (Homo sapiens) (UniProt O14976); details: Compound concentration 100.0 nM
[40] = tested on: eIF-2-alpha kinase GCN2 (Homo sapiens), Q9P2K8 [S808G]; details: Compound concentration 100.0 nM
[41] = molecular target: Serine/threonine-protein kinase NIM1 (Homo sapiens) (UniProt Q8IY84); details: Compound concentration 100.0 nM
[42] = tested on: Receptor-type tyrosine-protein kinase FLT3 (Homo sapiens), P36888 [UNDEFINED MUTATION]; details: Compound concentration 100.0 nM
[43] = molecular target: Calcium/calmodulin-dependent protein kinase type II subunit delta (Homo sapiens) (UniProt Q13557); details: Compound concentration 100.0 nM
[44] = molecular target: Cyclin-dependent kinase 19 (Homo sapiens) (UniProt Q9BWU1); details: Compound concentration 100.0 nM
Cyclin-dependent kinase 19 (Homo sapiens), sequence (Q9BWU1 whole entry): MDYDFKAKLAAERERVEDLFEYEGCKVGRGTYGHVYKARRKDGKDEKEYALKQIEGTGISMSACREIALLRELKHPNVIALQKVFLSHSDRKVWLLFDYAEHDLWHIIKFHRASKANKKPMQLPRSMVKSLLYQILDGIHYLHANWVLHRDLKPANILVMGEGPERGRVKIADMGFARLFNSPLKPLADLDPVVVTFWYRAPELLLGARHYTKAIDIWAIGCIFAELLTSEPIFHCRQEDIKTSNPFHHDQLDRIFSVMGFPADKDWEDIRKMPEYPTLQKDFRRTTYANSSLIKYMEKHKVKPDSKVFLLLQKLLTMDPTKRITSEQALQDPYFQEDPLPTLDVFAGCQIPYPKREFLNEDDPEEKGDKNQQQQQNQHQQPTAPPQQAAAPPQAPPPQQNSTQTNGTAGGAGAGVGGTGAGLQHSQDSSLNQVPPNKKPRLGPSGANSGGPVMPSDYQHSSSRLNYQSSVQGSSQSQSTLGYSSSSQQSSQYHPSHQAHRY

[45] = molecular target: Cyclin-dependent kinase 2 homolog (Plasmodium falciparum (isolate 3D7)) (UniProt P61075); details: Compound concentration 100.0 nM

Cc1ccc(-c2cnc([C@@]3(O)CC[C@H](C(=O)O)C(C)(C)C3)s2)cc1Nc1cccc(C(F)(F)F)n1 [MRL-SYKi-NC]
4700 nM (not active): IC50 [13]
active: residual activity [45] 33%
inactive: residual activity [1] 100% | residual activity [2] 75.4% | inhibition [3] 16.5% | residual activity [4] 100% | residual activity [5] 100% | residual activity [6] 90.8% | residual activity [7] 100% | inhibition [8] 8.33% | inhibition [9] -1.96% | residual activity [10] 90.4% | residual activity [11] 88.4% | residual activity [12] 100% | residual activity [14] 88% | residual activity [15] 92.3% | residual activity [16] 81.3% | residual activity [17] 100% | residual activity [18] 97.7% | residual activity [19] 88.3% | residual activity [20] 97.7% | residual activity [21] 77.8% | residual activity [22] 89.5% | residual activity [23] 91.3% | residual activity [24] 100% | residual activity [25] 92.4% | residual activity [26] 100% | residual activity [27] 100% | residual activity [28] 83.4% | residual activity [29] 100% | residual activity [30] 100% | residual activity [31] 100% | residual activity [32] 100% | residual activity [33] 100% | residual activity [34] 100% | inhibition [35] 17.5% | residual activity [36] 93.4% | residual activity [37] 100% | residual activity [38] 100% | residual activity [39] 100% | residual activity [40] 100% | residual activity [41] 100% | residual activity [42] 100% | residual activity [43] 87.2% | residual activity [44] 95.3%

Cc1cc(Nc2nccc(C)n2)cc(-c2cnc([C@@]3(O)CC[C@H](C(=O)O)C(C)(C)C3)s2)c1 [MRL-SYKi]
active: IC50 [13] 0.9 nM | residual activity [16] 14.7%
inactive: residual activity [1] 82.1% | residual activity [2] 100% | inhibition [3] 2.65% | residual activity [4] 100% | residual activity [5] 96.1% | residual activity [6] 100% | residual activity [7] 100% | inhibition [8] 17.3% | inhibition [9] -3.85% | residual activity [10] 61.8% | residual activity [11] 64% | residual activity [12] 100% | residual activity [14] 100% | residual activity [15] 100% | residual activity [17] 93.6% | residual activity [18] 100% | residual activity [19] 87.3% | residual activity [20] 100% | residual activity [21] 90.3% | residual activity [22] 100% | residual activity [23] 64.1% | residual activity [24] 87.6% | residual activity [25] 82% | residual activity [26] 100% | residual activity [27] 100% | residual activity [28] 100% | residual activity [29] 88% | residual activity [30] 100% | residual activity [31] 100% | residual activity [32] 100% | residual activity [33] 92.6% | residual activity [34] 67.3% | inhibition [35] -0.0778% | residual activity [36] 100% | residual activity [37] 93.8% | residual activity [38] 100% | residual activity [39] 100% | residual activity [40] 56.2% | residual activity [41] 100% | residual activity [42] 84.8% | residual activity [43] 84.6% | residual activity [44] 85% | residual activity [45] 100%
